Some results are limits rather than exact numbers.

For orientation: IC50 means the concentration that gives 50% inhibition.

This experiment deals with T1, human TRH-DE (Homo sapiens, UniProt Q9UKU6).
T1 construct: expressed in transfected cells; host or cells: Expi 293 cells (transient expression), membrane fraction
T1 sequence (Q9UKU6 1-1069): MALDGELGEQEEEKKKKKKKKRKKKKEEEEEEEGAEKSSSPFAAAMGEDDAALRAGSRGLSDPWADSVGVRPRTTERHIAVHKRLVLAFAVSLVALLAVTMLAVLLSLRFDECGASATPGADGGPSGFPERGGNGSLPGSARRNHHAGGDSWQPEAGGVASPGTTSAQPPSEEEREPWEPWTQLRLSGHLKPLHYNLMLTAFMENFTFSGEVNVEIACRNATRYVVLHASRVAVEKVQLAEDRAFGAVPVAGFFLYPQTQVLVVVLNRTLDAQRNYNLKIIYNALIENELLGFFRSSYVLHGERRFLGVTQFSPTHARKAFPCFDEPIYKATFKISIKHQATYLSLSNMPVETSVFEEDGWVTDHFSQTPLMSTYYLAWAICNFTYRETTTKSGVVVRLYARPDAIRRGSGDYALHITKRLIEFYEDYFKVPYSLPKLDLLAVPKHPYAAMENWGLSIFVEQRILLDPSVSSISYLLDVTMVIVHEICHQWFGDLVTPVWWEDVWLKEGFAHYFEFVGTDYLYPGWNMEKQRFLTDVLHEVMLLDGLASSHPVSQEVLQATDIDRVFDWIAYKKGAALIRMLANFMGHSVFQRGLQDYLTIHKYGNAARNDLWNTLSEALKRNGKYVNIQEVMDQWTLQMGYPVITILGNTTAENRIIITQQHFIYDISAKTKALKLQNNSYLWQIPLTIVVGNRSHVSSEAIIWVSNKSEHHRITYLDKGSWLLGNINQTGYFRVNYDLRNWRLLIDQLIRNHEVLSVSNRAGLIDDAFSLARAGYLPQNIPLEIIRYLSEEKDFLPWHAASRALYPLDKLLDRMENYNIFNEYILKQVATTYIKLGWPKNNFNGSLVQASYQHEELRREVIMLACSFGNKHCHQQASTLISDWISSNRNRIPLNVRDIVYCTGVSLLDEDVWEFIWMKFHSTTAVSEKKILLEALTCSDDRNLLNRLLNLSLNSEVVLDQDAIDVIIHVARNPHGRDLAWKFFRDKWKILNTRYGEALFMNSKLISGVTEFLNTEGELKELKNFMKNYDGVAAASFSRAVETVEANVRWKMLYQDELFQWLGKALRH
Put plainly: TRH-DE inhibition test (RapidFire MS measurement of product Cyclo (His-Pro)). The format is biochemical. The following applies: membrane fraction of Expi 293 cells expressing human TRH-DE; 10 μM TRH substrate; room temperature, 2 hours; 16-point concentration test. The procedure, abridged: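 Inhibition derived from product/internal-standard ratios of Cyclo(His-Pro), quantified by RapidFire triple-quadrupole MS after acetonitrile:methanol quench, with IC50 fitted over 16 concentrations. Enzyme source: membranes of Expi 293 cells transiently expressing human TRH-DE, 4 μg/ml, pH 7.4 phosphate buffer. Incubation with 10 μM substrate ran 2 h at room temperature.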
The compound `CC1C=Cc2nc(C(F)(F)F)ccc2C(=O)N1C1CC2(C1)CN(S(=O)(=O)c1ccccc1F)C2` (stereo not drawn) [Example 111, 6-[2-(2-fluorophenyl)sulfonyl-2-azaspiro[3.3]heptan-6-yl]-7-methyl-2-(trifluoromethyl)-7H-pyrido[3,2-c]azepin-5-one] returned an IC50 of 60 nM. In other words, the double-digit nanomolar range.

`Cc1nc2c(s1)C(=O)N(C1CC3(C1)CN(S(=O)(=O)c1ccccc1F)C3)[C@H](C)C=C2` [Example 116] gave an IC50 of 116 nM. Compared with the last compound, the IC50 is about 1.9-fold higher.

`C[C@@H]1C=Cc2nc(C(C)(F)F)sc2C(=O)N1C1CC2(C1)CN(S(=O)(=O)c1ccccc1F)C2` [Example 117] had a half-maximal inhibitory concentration (IC50) of 46 nM.

For `C[C@@H]1C=Cc2nc(C3(F)CC3)sc2C(=O)N1C1CC2(C1)CN(S(=O)(=O)c1ccccc1F)C2` [Example 121], the IC50 came to 21 nM.

Compound `C[C@@H]1C=Cc2nc([C@@H]3C[C@@H]3F)sc2C(=O)N1C1CC2(C1)CN(S(=O)(=O)c1ccccc1F)C2` [Example 122] had an IC50 of 15 nM. The IC50 values of the last two compounds are within 1.5-fold of each other.

In the case of `C[C@@H]1C=Cc2nc([C@H]3C[C@H]3F)sc2C(=O)N1C1CC2(C1)CN(S(=O)(=O)c1ccccc1F)C2` [Example 123], the IC50 is 15 nM. That is a double-digit nanomolar value.

As for `C[C@@H]1C=Cc2nc(C3(C(F)(F)F)CC3)sc2C(=O)N1C1CC2(C1)CN(S(=O)(=O)c1ccccc1F)C2` [Example 124], the IC50 turned out to be 17 nM.

Turning to `Cc1snc2c1C=C[C@@H](C)N(C1CC3(C1)CN(S(=O)(=O)c1ccccc1F)C3)C2=O` [Example 126], the IC50 came to 24 nM. This IC50 and that of the compound before are within 1.5-fold of each other.

Compound `Cc1nsc2c1C(=O)N(C1CC3(C1)CN(S(=O)(=O)c1ccccc1F)C3)[C@H](C)C=C2` [Example 127] yielded an IC50 of 21 nM.

Compound `C[C@@H]1C=Cc2oc(C3CC3)nc2C(=O)N1C1CC2(C1)CN(S(=O)(=O)c1ccccc1F)C2` [Example 128] displayed an IC50 of 224 nM.

For the compound `Cc1onc2c1C=C[C@@H](C)N(C1CC3(C1)CN(S(=O)(=O)c1ccccc1F)C3)C2=O` [Example 130], it took 136 nM to reach half-maximal inhibition (IC50).

`Cc1noc2c1C(=O)N(C1CC3(C1)CN(S(=O)(=O)c1ccccc1F)C3)[C@H](C)C=C2` [Example 132] gave an IC50 of 131 nM.

Turning to `CC1C2C(c3nc(C4CC4)sc3C(=O)N1C1CC3(C1)CN(S(=O)(=O)c1ccccc1F)C3)C2(F)F` (stereo not drawn) [Example 133, (2R*,4S*,5R*)-10-cyclopropyl-3,3-difluoro-6-[2-(2-fluorophenyl)sulfonyl-2-azaspiro[3.3]heptan-6-yl]-5-methyl-9-thia-6,11-diazatricyclo[6.3.0.02.4]undec-1(8),10-dien-7-one], 4 nM corresponded to half-maximal inhibition (IC50).

Compound `C[C@@H]1COc2cc(N3CCOCC3)ncc2C(=O)N1C1CC2(C1)CN(S(=O)(=O)c1ccccc1F)C2` [Example 134, (3R)-4-[2-(2-fluorophenyl)sulfonyl-2-azaspiro[3.3]heptan-6-yl]-3-methyl-8-morpholino-2,3-dihydropyrido[3,4-f][1,4]oxazepin-5-one] showed an IC50 of 2 nM.

`CCCCN(C)c1cc2c(cn1)C(=O)N(C1CC3(C1)CN(S(=O)(=O)c1ccccc1F)C3)[C@H](C)CO2` [Example 135] gave an IC50 of 1 nM.

Compound `C[C@@H]1COc2cc(NC3CCCC3)ncc2C(=O)N1C1CC2(C1)CN(S(=O)(=O)c1ccccc1F)C2` [Example 136] had an IC50 of 1 nM.

For `C[C@@H]1COc2cc(N(C)C3CCCC3)ncc2C(=O)N1C1CC2(C1)CN(S(=O)(=O)c1ccccc1F)C2` [Example 137], the IC50 is 1 nM.

`C[C@@H]1COc2cc(N(C)CC3CCCCC3)ncc2C(=O)N1C1CC2(C1)CN(S(=O)(=O)c1ccccc1F)C2` [Example 138] showed an IC50 of 1 nM.

On to `C[C@@H]1COc2cc(N(C)Cc3ccccc3)ncc2C(=O)N1C1CC2(C1)CN(S(=O)(=O)c1ccccc1F)C2` [Example 139], for which the IC50 was 2 nM.

The compound `C[C@@H]1COc2cc(Nc3ccc(F)cc3)ncc2C(=O)N1C1CC2(C1)CN(S(=O)(=O)c1ccccc1F)C2` [Example 140] yielded an IC50 of 1 nM. Compared with the last compound, the IC50 is about 2-fold lower.

As to `C[C@@H]1COc2cc(N(C)c3ccc(F)cc3)ncc2C(=O)N1C1CC2(C1)CN(S(=O)(=O)c1ccccc1F)C2` [Example 141], the IC50 came to 1 nM.

Regarding `C[C@@H]1COc2cc(N3CCCC3)ncc2C(=O)N1C1CC2(C1)CN(S(=O)(=O)c1ccccc1F)C2` [Example 142], 1 nM corresponded to half-maximal inhibition (IC50). This counts as single-digit nanomolar.

Compound `C[C@@H]1COc2cc(N3CC[C@H](F)C3)ncc2C(=O)N1C1CC2(C1)CN(S(=O)(=O)c1ccccc1F)C2` [Example 143] showed an IC50 of 1 nM.

`C[C@@H]1COc2cc(N3CC[C@@H](F)C3)ncc2C(=O)N1C1CC2(C1)CN(S(=O)(=O)c1ccccc1F)C2` [Example 144] showed an IC50 of 1 nM. This counts as single-digit nanomolar.

As for `C[C@@H]1COc2cc(N3CC(F)(F)C(F)(F)C3)ncc2C(=O)N1C1CC2(C1)CN(S(=O)(=O)c1ccccc1F)C2` [Example 147], it took 1 nM to reach half-maximal inhibition (IC50).

Turning to `C[C@@H]1COc2cc(N3C[C@H]4C[C@H]4C3)ncc2C(=O)N1C1CC2(C1)CN(S(=O)(=O)c1ccccc1F)C2` [Example 148], the IC50 was < 1 nM.

Turning to `C[C@@H]1COc2cc(N3CCCCC3)ncc2C(=O)N1C1CC2(C1)CN(S(=O)(=O)c1ccccc1F)C2` [Example 149], 1 nM corresponded to half-maximal inhibition (IC50). In other words, the single-digit nanomolar range.

The compound `C[C@@H]1COc2cc(N3CCCC[C@@H]3C)ncc2C(=O)N1C1CC2(C1)CN(S(=O)(=O)c1ccccc1F)C2` [Example 150] gave a 50% inhibitory concentration (IC50) of 1 nM.

Compound `C[C@@H]1CCCCN1c1cc2c(cn1)C(=O)N(C1CC3(C1)CN(S(=O)(=O)c1ccccc1F)C3)[C@H](C)CO2` [Example 151] yielded an IC50 of 1 nM.

The compound `CC1CCN(c2cc3c(cn2)C(=O)N(C2CC4(C2)CN(S(=O)(=O)c2ccccc2F)C4)[C@H](C)CO3)CC1` [Example 153] registered an IC50 of 1 nM.

Turning to `COC1CCN(c2cc3c(cn2)C(=O)N(C2CC4(C2)CN(S(=O)(=O)c2ccccc2F)C4)[C@H](C)CO3)CC1` [Example 154], the midpoint of inhibition, the IC50, lay at 2 nM.

The compound `C[C@@H]1COc2cc(N3CCC(F)CC3)ncc2C(=O)N1C1CC2(C1)CN(S(=O)(=O)c1ccccc1F)C2` [Example 155] returned an IC50 of 1 nM.

As for `C[C@@H]1COc2cc(N3CCC(F)(F)CC3)ncc2C(=O)N1C1CC2(C1)CN(S(=O)(=O)c1ccccc1F)C2` [Example 156], the IC50 turned out to be 2 nM. Compared with the last compound, the IC50 is about 2-fold higher.

In turn, `C[C@@H]1COc2cc(N3CCCC(F)(F)C3)ncc2C(=O)N1C1CC2(C1)CN(S(=O)(=O)c1ccccc1F)C2` [Example 157] registered an IC50 of 1 nM.

For the compound `C[C@@H]1COc2cc(N3CCN(C)CC3)ncc2C(=O)N1C1CC2(C1)CN(S(=O)(=O)c1ccccc1F)C2` [Example 158], the midpoint of inhibition, the IC50, lay at 6 nM.

With `C[C@@H]1COc2cc(N3CCCCCC3)ncc2C(=O)N1C1CC2(C1)CN(S(=O)(=O)c1ccccc1F)C2` [Example 159], the IC50 was 1 nM.

Compound `C[C@@H]1COc2cc(N3CCCOCC3)ncc2C(=O)N1C1CC2(C1)CN(S(=O)(=O)c1ccccc1F)C2` [Example 160] came in with an IC50 of 1 nM.

For `C[C@@H]1CNc2nc(N3C[C@H]4C[C@H]4C3)ccc2C(=O)N1C1CC2(C1)CN(S(=O)(=O)c1ccccc1F)C2` [Example 161], the midpoint of inhibition, the IC50, lay at 1 nM.

In turn, `C[C@@H]1CNc2nc(N3CC[C@H](F)C3)ccc2C(=O)N1C1CC2(C1)CN(S(=O)(=O)c1ccccc1F)C2` [Example 162, (3R)-4-[2-(2-fluorophenyl)sulfonyl-2-azaspiro[3.3]heptan-6-yl]-8-[(3S)-3-fluoropyrrolidin-1-yl]-3-methyl-2,3-dihydro-H-pyrido[2,3-e][1,4]diazepin-5-one] returned a concentration for half-maximal inhibition (IC50) of 2 nM.

On to `COc1ccc2c(n1)OC[C@@H](C)N(C1CC3(C1)CN(S(=O)(=O)c1ccccc1F)C3)C2=O` [Example 163, (3R)-4-[2-(2-fluorophenyl)sulfonyl-2-azaspiro[3.3]heptan-6-yl]-8-methoxy-3-methyl-2,3-dihydropyrido[3,2-f][1,4]oxazepin-5-one], for which inhibition was half-maximal at 8 nM (IC50).

`COc1cc2c(cn1)C(=O)N(C1CC3(C1)CN(S(=O)(=O)c1ccccc1F)C3)[C@H](C)CO2` [Example 165] showed an IC50 of 2 nM.

For the compound `COc1cnc2c(n1)OC[C@@H](C)N(C1CC3(C1)CN(S(=O)(=O)c1ccccc1F)C3)C2=O` [Example 166], the IC50 was determined as 5 nM.
